Consider seven compounds from patent US20190262307A1, “IGURATIMOD AS AN MIF INHIBITOR” (THE FEINSTEIN INSTITUTE FOR MEDICAL RESEARCH, priority 2016, published 2019).

Data set [1] concerns LPS-treated human peripheral blood monocytes. Nature of the data set: LPS-induced cytokine release in human monocytes enriched by negative selection. Type of data set: cell-based. The conditions noted are these: for TNFα release: concentrations up to 50 μM. An excerpt: Preparation of Peripheral Blood Cells: Human peripheral blood was collected in sodium heparin (IRB#12-200A) or obtained as Leukopaks from New York Blood Center (New York, N.Y.). Mononuclear cells were isolated by density gradient centrifugation in Ficoll-Paque Plus (GE Healthcare; Pittsburgh, Pa.). Monocytes were either purified by two-hour adherence to Primaria culture plates (Corning Life Sciences; Corning, N.Y.) or enriched by negative magnetic selection using Monocyte Isolation Kit II (Miltenyi Biotech; Auburn, Calif.). All monocyte preps were cultured in RPMI supplemented with 10% human AB serum, 100 units/mL penicillin-streptomycin, and 2 mM L-glutamine and used within 24 hours. Macrophages were differentiated from adherence-purified monocytes by incubation with 10 ng/mL human M-CSF (Sigma) for seven days, with media replenishment performed on days 3 and 5.
Cytokine Production Assays: For LPS-induced cytokine release, negative selection-enriched monocytes (human) or mixed peripheral blood leukocytes (murine) were plated at a density of 2×10^5 cells/mL in 96-well plates. Cells were pre-treated with MIF inhibitors in 0.1% DMSO (final) for 1 hour before stimulation with LPS from E. coli R515 (Axxora; Farmingdale, N.Y.): 24 hours for human cells, 5 hours for murine cells. Cell-free supernatants were collected and stored at −80° C. for cytokine determinations by ELISA; 1:2 dilutions were used for TNFα and 1:3 dilutions for IL-8 and MCP-1.

Data set [2] deals with adherence-purified human peripheral blood monocytes. Nature of the data set: Glucocorticoid synergy in vitro, adherence-purified monocytes. Type of data set: cell-based. The conditions noted are these: LPS. How it is done: Glucocorticoid Synergy in vitro: The methods of Roger et al. and Kerschbaumer et al. were adapted for these experiments (17, 21). […] Cell-free supernatants were collected and analyzed immediately with a murine TNFα ELISA at a 1:10 dilution. THP-1 cells were plated at a density of 2×10^5 cells/well in a 96-well plate and used the same day with the same treatment conditions as RAW 264.7 cells, except that THP-1 cells were incubated with LPS for 16 hours prior to isolation of cell-free supernatants. Supernatants were analyzed using a human TNFα ELISA at a 1:10 dilution. Human peripheral blood mononuclear cells isolated by adherence (described above) were plated at a density of 2×10^5 cells/well in a 96-well plate and used the same day with the same treatment conditions as THP-1 cells. Supernatants were analyzed using a human TNFα ELISA at a 1:20 dilution. […] Cells were treated under the same conditions as THP-1 cells and supernatants were analyzed using a human TNFα ELISA at a 1:10 dilution.
For all above experiments, cytotoxicity was assessed using an MTT assay (1-2 hour incorporation); no significant cytotoxicity effects were observed under any treatment conditions unless otherwise noted.

For data set [3] the following is noted: early communications; cited from earlier work.
Data set [4] has as its system C57/BL6 and MIF−/− mice, LPS. As to the kind of experiment: Non-lethal endotoxemia, serum TNFα. Type of data set: in vivo, mouse. The conditions noted are these: 90 minutes post-LPS, 20 mg/kg i.p. From the text: Animal Experiments: The Institutional Animal Care and Use Committee of the Feinstein Institute for Medical Research reviewed and approved all animal protocols prior to initiation of experiments. Male BALB/c mice were purchased from the Jackson Laboratory (Bar Harbor, Me.) and used for endotoxemia experiments at ages 8-10 weeks. MIF KO animals were maintained on a C57/BL6 NCr background from Charles River Laboratories (Stone Ridge, N.Y.); these animals were used alongside matched wild-type animals for endotoxemia experiments at ages 8-12 weeks.
Endotoxemia: Endotoxemia was induced by intraperitoneal injection of LPS from E. coli O111:B4 (Sigma). […] Blood was collected by cardiac puncture and allowed to clot 20 minutes at room temperature and 20 minutes at 4° C.; sera were isolated by centrifugation at 300×g for 10 minutes and stored at −20° C. for further analysis by TNFα ELISA (1:3 dilution).

The test system of the next data set is neonates pups with CDH. As to the kind of experiment: Nitrofen congenital diaphragmatic hernia (CDH) model, neonate pups. Type of data set: in vivo. The conditions noted are these: vs Nitrofen group; for VGEF / eNOS phosphorylation: P<0.05.
Data set [5] deals with LPS-stimulated human peripheral blood monocytes. The conditions noted are these: cited from earlier work.
Where [6] appears, read: 1 h pre-treatment, 1 ng/mL LPS 24 h.

For the compound `Oc1ccc(-c2cnc3ccccn23)cc1O` [Compound K-664.1], in data set [1] (setting [6]), the MCP-1 release result was “stronger suppressors of MCP-1 than TNFα” and the TNFα release result is recorded as “moderate suppression”.

On to `CS(=O)(=O)Nc1cc2occ(NC=O)c(=O)c2cc1Oc1ccccc1` [Compound T-614, 3-formylamino-7-methylsulfonylamino-6-phenoxy-4H-1-benzopyran-4-one], for which the “concentration at which TNFα is suppressed (as low as)” value in data set [2] is ≤ 10 µM. In addition, the oral bioavailability entry in data set [3] is reported as “orally bioavailable”. In addition, the “serum TNFα, MIF−/− mice” value in data set [4] was “no significant effect”.

As to `COC(=O)CC1CC(c2ccc(O)cc2)=NO1` (centres unmarked) [ISO-1], in the data set with neonates pups with CDH, the “Arginase II” value is “significantly lower”, the VGEF entry was “significant increase” and the eNOS phosphorylation result is “significant increase”. In data set [1] (setting [6]), the TNFα release result is recorded as “moderate suppression”.

In the case of `CC(C)(C)COC(=O)CC1CC(c2ccc(O)c(F)c2)=NO1` (centres unmarked) [ISO-92], in the data set on neonates pups with CDH, the “Arginase II” value is “significantly lower”, the VGEF result is “significant increase” and the eNOS phosphorylation entry is “significant increase”. Besides, in data set [1] (setting [6]), the MCP-1 release entry is “stronger suppressors of MCP-1 than TNFα” and the TNFα release entry is recorded as “almost completely spared”.

For `O=C(O/N=C/c1ccc(O)cc1)C1CCCCC1` [OXIM-11], the TNFα release result in data set [1] (setting [6]) is reported as “almost completely spared”. For the same compound, the “suppression of the cytokines analyzed (TNFα, MCP-1, IL-8)” value in data set [1] (LPS-treated monocytes) is “minimal suppression”.

For the compound `N[C@H](Cc1cc(I)c(Oc2cc(I)c(O)c(I)c2)c(I)c1)C(=O)O` [d-T4], in data set [1] (setting [6]), the IL-8 release result is listed as “moderate suppression” and the TNFα release entry was “almost completely spared”.

Regarding `COc1ccc2c(c1)c(CC(=O)O)c(C)n2C(=O)c1ccc(Cl)cc1` [indomethacin], in data set [5], the IL-1β intracellular accumulation entry was “increases intracellular accumulation” and the IL-1β release result is “inhibits release”.
